Laboratory results published in ChEMBL document CHEMBL3763143, “Novel morpholine scaffolds as selective dopamine (DA) D3 receptor antagonists” (Bioorg Med Chem Lett, 2016).
The source made the active and inactive calls. The calls are words filed in the database; no cut-off is given here.

Columns and labels:
D(3) dopamine receptor [1] = biological target: T1, D(3) dopamine receptor (Homo sapiens, UniProt P35462); assay: Antagonist activity at human dopamine D3 receptor expressed in CHO cells after 90 mins by [35S]-GTPgamma S assay; format: cell-based
[2] = biological target: Voltage-gated inwardly rectifying potassium channel KCNH2 (Homo sapiens, UniProt Q12809); assay: Displacement of [3H]-dofetilide from human ERG potassium channel by scintillation proximity assay
D(3) dopamine receptor [3] = biological target: T1, D(3) dopamine receptor; assay: Agonist activity at human dopamine D3 receptor expressed in CHO cells after 90 mins by [35S]-GTPgamma S assay; format: cell-based
D(3) dopamine receptor [4] = biological target: D(3) dopamine receptor (Rattus norvegicus, UniProt P19020)
Description: Displacement of [125I]-7-OH-PIPAT from rat brain dopamine D3 receptor after 45 mins by microplate scintillation counting analysis

D(1A) dopamine receptor = D(1A) dopamine receptor (Homo sapiens, UniProt P21728); assay: Binding affinity to dopamine D1 receptor (unknown origin)
[5] = biological target: Muscarinic acetylcholine receptor M3 (Homo sapiens, UniProt P20309); assay: Binding affinity to muscarinic M3 receptor (unknown origin)
[6] = biological target: T2, D(4) dopamine receptor (Homo sapiens) (UniProt P21917); assay: Binding affinity to dopamine D4 receptor (unknown origin)
T2 sequence (whole entry): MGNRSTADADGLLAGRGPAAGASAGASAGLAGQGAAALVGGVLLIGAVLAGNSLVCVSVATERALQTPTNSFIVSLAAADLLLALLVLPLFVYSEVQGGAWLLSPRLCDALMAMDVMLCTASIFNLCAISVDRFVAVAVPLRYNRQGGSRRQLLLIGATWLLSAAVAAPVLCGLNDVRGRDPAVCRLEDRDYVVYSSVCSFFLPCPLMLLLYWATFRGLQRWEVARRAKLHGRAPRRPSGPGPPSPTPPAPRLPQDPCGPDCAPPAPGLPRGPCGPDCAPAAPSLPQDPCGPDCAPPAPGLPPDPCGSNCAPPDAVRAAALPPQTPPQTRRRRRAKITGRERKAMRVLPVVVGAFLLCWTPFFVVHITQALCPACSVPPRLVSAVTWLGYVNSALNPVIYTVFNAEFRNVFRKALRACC

[7] = biological target: T3, Muscarinic acetylcholine receptor M1 (Homo sapiens, UniProt P11229); assay: Antagonist activity at muscarinic M1 receptor (unknown origin)
T3 sequence (P11229 whole entry): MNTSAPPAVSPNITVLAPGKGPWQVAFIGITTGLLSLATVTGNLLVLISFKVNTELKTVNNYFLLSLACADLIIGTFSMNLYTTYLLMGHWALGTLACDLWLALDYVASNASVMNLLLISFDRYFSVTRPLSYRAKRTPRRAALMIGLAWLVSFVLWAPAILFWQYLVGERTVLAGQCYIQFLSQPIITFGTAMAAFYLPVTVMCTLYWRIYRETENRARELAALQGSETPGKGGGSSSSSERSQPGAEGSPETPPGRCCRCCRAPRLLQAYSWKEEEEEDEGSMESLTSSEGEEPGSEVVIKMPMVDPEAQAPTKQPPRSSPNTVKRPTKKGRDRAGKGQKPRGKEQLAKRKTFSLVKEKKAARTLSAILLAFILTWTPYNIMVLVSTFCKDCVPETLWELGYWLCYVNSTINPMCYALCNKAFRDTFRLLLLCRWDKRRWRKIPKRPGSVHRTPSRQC

Cytochrome P450 2C9 = Cytochrome P450 2C9 (Homo sapiens, UniProt P11712); assay: Inhibition of human CYP2C9 expressed in bactosome; format: ADME
[8] = Intrinsic clearance in rat liver microsomes assessed per mg of protein; format: ADME; settings: read-out: CLH
Cytochrome P450 2C19 = Cytochrome P450 2C19 (Homo sapiens, UniProt P33261); assay: Inhibition of human CYP2C19 expressed in bactosome; format: ADME
Cytochrome P450 3A4 [9] = biological target: T4, Cytochrome P450 3A4 (Homo sapiens, UniProt P08684); assay: Inhibition of human CYP3A4 expressed in bactosome using 7BQ as substrate; format: ADME
[10] = Fraction unbound in portal vein-cannulated rat brain; format: ADME, tissue-based
[11] = Intrinsic clearance in human liver microsomes assessed per mg of protein; format: ADME; settings: read-out: CLH
Cytochrome P450 2D6 = Cytochrome P450 2D6 (Homo sapiens, UniProt P10635); assay: Inhibition of human CYP2D6 expressed in bactosome; format: ADME
[12] = Fraction unbound in portal vein-cannulated rat blood; format: ADME, tissue-based
Cytochrome P450 3A4 [13] = biological target: T4, Cytochrome P450 3A4; assay: Inhibition of human CYP3A4 expressed in bactosome using DBOMF as substrate; format: ADME
Cytochrome P450 1A2 = biological target: T5, Cytochrome P450 1A2 (Homo sapiens, UniProt P05177); assay: Inhibition of human CYP1A2 expressed in bactosome; format: ADME
T5 sequence (P05177 whole entry): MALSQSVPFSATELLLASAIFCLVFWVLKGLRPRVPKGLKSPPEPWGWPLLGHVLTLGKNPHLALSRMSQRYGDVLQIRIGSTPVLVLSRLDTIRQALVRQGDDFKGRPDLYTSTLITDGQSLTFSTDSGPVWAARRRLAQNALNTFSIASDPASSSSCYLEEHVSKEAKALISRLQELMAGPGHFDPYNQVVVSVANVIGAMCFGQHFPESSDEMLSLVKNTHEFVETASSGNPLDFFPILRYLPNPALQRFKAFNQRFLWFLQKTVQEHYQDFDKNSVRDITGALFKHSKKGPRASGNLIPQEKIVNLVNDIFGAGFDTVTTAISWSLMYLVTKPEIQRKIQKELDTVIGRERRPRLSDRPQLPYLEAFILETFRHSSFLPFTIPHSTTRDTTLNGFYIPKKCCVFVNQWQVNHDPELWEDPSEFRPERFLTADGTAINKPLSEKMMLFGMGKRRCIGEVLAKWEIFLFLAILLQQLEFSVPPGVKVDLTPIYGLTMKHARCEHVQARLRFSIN

Chain of Voltage-gated inwardly rectifying potassium channel KCNH2 (Q12809 whole entry): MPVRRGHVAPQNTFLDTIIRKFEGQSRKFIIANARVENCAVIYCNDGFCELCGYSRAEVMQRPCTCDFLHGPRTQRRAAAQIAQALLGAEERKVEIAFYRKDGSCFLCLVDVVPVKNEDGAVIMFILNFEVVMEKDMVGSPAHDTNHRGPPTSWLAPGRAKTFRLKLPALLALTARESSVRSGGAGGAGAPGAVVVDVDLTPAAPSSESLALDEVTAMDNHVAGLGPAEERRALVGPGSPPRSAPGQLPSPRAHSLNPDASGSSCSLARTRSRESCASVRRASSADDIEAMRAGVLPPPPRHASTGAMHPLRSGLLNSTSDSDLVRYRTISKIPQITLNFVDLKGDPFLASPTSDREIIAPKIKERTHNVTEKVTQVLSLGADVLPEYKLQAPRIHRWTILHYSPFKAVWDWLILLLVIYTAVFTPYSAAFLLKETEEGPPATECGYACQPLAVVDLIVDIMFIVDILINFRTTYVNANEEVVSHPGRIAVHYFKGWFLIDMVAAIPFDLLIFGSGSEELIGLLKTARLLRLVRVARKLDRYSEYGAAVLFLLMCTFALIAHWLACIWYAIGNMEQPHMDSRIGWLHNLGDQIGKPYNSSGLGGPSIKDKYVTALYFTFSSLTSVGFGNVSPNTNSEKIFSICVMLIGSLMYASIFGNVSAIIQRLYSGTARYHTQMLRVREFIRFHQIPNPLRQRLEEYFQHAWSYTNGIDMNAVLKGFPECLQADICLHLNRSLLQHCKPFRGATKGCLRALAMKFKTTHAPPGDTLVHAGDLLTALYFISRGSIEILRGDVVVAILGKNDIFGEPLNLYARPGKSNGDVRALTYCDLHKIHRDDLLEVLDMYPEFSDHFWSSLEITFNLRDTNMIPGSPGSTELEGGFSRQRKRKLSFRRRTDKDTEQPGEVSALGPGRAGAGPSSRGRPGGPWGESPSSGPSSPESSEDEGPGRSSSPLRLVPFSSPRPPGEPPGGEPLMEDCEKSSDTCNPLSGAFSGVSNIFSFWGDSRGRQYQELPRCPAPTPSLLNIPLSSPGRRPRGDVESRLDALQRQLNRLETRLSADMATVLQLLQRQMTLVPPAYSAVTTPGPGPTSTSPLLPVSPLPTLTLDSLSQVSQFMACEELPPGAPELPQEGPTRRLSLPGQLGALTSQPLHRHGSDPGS
Chain of D(3) dopamine receptor (Rattus norvegicus, UniProt P19020) (P19020 whole entry): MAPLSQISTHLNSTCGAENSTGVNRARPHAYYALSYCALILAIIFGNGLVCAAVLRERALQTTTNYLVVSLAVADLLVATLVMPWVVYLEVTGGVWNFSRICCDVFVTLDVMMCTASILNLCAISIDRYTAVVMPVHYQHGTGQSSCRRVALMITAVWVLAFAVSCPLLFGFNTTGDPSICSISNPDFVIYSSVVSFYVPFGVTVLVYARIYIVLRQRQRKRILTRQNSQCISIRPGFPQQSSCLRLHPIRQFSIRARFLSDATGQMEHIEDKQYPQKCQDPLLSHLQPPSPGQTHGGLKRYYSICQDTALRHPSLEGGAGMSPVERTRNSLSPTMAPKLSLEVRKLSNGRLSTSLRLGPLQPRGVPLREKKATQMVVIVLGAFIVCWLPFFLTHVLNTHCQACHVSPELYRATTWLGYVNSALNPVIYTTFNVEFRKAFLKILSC
T1 sequence (P35462 whole entry): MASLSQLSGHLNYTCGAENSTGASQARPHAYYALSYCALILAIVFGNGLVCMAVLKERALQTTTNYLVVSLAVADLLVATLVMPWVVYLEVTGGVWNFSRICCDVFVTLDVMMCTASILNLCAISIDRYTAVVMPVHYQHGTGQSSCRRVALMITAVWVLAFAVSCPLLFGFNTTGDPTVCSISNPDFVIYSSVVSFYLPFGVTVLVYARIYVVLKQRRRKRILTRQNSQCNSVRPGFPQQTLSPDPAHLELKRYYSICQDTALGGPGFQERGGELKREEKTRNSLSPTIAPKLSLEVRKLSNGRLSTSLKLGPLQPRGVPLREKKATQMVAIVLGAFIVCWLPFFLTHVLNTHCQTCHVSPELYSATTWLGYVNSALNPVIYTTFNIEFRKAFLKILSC
T4 sequence (P08684 whole entry): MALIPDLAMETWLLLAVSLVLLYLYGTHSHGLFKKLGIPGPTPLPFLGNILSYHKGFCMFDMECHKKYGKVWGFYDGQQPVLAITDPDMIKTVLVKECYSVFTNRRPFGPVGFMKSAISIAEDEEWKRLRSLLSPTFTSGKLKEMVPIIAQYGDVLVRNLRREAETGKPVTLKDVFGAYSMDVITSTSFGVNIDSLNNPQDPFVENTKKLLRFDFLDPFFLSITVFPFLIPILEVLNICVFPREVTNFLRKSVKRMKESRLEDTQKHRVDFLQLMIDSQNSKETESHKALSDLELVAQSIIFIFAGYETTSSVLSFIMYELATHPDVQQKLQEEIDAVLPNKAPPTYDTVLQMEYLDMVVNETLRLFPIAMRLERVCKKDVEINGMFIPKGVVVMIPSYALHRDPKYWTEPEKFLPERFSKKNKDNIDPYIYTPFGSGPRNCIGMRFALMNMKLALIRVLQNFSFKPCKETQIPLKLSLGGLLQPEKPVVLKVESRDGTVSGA
Chain of Cytochrome P450 2C19 (P33261 whole entry): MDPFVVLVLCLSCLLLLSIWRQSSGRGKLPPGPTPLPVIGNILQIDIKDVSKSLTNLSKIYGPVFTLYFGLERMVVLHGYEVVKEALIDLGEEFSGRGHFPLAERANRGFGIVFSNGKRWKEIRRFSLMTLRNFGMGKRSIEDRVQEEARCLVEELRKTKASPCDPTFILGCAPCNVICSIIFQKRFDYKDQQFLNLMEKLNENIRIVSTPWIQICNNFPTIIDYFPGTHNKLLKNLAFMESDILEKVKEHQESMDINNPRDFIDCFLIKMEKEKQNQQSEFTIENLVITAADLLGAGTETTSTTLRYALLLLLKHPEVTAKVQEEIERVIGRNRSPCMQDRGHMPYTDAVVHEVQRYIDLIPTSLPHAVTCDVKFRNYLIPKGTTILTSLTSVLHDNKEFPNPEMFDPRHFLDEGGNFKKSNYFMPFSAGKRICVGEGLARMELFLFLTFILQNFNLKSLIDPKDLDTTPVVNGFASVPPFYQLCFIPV
Chain of Cytochrome P450 2C9 (P11712 whole entry): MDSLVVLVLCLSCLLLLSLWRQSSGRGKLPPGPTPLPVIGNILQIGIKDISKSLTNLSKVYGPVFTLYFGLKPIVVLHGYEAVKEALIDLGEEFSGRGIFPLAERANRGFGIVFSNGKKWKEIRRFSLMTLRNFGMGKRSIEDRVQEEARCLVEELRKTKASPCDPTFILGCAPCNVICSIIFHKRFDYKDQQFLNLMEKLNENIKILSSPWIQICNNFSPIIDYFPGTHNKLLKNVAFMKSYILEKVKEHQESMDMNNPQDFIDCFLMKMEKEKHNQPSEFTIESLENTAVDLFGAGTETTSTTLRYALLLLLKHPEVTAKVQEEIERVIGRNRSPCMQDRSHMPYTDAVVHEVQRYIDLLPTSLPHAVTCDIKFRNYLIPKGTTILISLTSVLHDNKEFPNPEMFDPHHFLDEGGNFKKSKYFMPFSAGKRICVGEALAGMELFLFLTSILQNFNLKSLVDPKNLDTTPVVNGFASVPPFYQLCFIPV
Chain of Cytochrome P450 2D6 (P10635 whole entry): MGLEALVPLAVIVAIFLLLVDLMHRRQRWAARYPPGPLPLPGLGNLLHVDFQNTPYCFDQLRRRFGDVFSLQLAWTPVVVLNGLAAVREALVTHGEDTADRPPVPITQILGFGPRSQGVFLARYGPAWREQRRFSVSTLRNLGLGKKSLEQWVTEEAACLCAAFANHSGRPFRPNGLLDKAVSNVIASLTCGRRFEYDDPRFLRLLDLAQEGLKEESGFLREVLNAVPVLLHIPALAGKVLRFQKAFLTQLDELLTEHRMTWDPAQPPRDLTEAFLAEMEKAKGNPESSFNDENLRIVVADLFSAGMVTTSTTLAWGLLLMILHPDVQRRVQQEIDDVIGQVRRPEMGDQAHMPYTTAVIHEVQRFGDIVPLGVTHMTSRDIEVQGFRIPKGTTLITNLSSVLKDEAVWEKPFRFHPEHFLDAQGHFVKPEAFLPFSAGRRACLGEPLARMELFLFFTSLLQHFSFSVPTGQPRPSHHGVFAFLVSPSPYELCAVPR
Chain of Muscarinic acetylcholine receptor M3 (P20309 whole entry, looked up): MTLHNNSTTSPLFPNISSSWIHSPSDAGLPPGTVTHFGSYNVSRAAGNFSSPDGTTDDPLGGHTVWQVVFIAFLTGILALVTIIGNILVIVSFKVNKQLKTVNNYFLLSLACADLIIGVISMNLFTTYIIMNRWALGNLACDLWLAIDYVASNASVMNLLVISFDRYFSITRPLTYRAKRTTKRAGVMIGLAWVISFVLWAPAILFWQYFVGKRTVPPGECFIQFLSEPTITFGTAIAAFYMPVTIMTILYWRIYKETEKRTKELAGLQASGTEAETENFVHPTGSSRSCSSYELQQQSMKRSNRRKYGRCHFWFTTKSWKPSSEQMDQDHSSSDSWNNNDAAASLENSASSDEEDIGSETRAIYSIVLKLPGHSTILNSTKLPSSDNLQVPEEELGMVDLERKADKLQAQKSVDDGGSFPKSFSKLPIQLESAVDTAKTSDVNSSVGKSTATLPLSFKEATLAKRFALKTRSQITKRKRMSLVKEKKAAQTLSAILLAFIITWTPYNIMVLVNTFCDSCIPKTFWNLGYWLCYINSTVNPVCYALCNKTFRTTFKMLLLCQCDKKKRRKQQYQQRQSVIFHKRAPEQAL
Chain of D(1A) dopamine receptor (P21728 whole entry): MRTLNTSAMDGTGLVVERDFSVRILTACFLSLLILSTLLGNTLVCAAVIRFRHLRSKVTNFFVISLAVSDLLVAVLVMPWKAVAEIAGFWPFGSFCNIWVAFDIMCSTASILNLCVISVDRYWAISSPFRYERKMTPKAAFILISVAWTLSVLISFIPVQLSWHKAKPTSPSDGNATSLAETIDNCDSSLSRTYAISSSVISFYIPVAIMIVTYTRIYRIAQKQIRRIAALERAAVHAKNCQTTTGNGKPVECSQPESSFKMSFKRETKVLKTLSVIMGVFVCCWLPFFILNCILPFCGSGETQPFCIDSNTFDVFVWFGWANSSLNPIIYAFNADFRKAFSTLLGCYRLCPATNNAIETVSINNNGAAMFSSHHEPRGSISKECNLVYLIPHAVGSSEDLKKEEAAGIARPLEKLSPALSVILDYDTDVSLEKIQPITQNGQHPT

Compound	Ki (D(3) dopamine receptor [1]) [nM]	Ki (D(3) dopamine receptor [3]) [nM]	Ki (D(3) dopamine receptor [4]) [nM]	other results
Cc1ccc(C2CN(CCCSc3nnc(-c4ccc(-c5noc(C)n5)cc4)n3C)CCO2)cc1 (racemic)	15.8	> 10000	79.4	Ki [2]: 1000 nM
Cc1ncoc1-c1nnc(SCCCCN2CCOC(c3ccc(C(F)(F)F)cc3)C2)n1C (racemic)	25.1	> 10000	79.4	–
Cn1c(SCCCN2CCOC(c3ccc(C(F)(F)F)cc3)C2)nnc1-c1cnccn1 (racemic)	–	> 10000	158	–
Cc1ncoc1-c1nnc(SCCCN2CCOC(c3ccc(F)cc3)C2)n1C (stereo in doubt; 7)	–	–	–	Activity (D(1A) dopamine receptor): inactive; Activity [5]: inactive; Activity [6]: inactive
Cn1c(SCCCN2CCOC(c3ccc(C(F)(F)F)cc3)C2)nnc1-c1ccc(-n2cnnc2)cc1 (racemic)	–	> 10000	126	–
Cn1cccc1-c1nnc(SCCCN2CCOC(c3ccc(C(F)(F)F)cc3)C2)n1C (racemic)	–	> 10000	126	–
Cn1c(SCCCN2CCOC(c3ccc(C(F)(F)F)cc3)C2)nnc1-c1ccc(-c2ncco2)cc1 (racemic)	10	> 10000	5.01	Ki [2]: 1000 nM
Cc1ncoc1-c1nnc(SCCCCN2CCOC(c3ccc(C(F)(F)F)cc3)C2)n1C (stereo in doubt; 11)	15.8	–	–	Ki [2]: 2510 nM; pKi (D(3) dopamine receptor [4]): 7.1
Cc1ncoc1-c1nnc(SCCCN2CCOC(c3ccc(Br)cc3)C2)n1C (racemic)	–	> 10000	200	–
Cn1c(SCCCN2CCOC(c3ccc(C(F)(F)F)cc3)C2)nnc1-c1ccc(C(N)=O)cc1 (racemic)	20	> 10000	31.6	Ki [2]: 5010 nM; Ki [7]: 1000 nM
Cc1ccc(C2CN(CCCSc3nnc(-c4ocnc4C)n3C)CCO2)cc1 (racemic)	–	> 10000	501	–
Cn1c(SCCCN2CCOC(c3ccc(C(F)(F)F)cc3)C2)nnc1-c1cccnc1 (racemic)	–	> 10000	251	–
Cn1c(SCCCN2CCOC(c3ccc(C(F)(F)F)cc3)C2)nnc1-c1ccc(-c2ncco2)cc1 (stereo in doubt; 34)	3.16	–	6.31	Ki [2]: 1260 nM; IC50 (Cytochrome P450 2C9): > 3000 nM; microsomal CLint [8]: 114 µL/min/mg; IC50 (Cytochrome P450 2C19): > 3000 nM; IC50 (Cytochrome P450 3A4 [9]): > 3000 nM; fraction unbound [10]: 0.005; microsomal CLint [11]: 668 µL/min/mg; IC50 (Cytochrome P450 2D6): > 3000 nM; fraction unbound [12]: 0.008; IC50 (Cytochrome P450 3A4 [13]): > 3000 nM; IC50 (Cytochrome P450 1A2): > 3000 nM
Cn1c(SCCCN2CCOC(c3ccc(C(F)(F)F)cc3)C2)nnc1-c1ccc(-c2ncco2)cc1 (stereo in doubt; 33)	–	–	398	–
Cn1c(SCCCN2CCOC(c3ccc(C(F)(F)F)cc3)C2)nnc1-c1nccs1 (racemic)	–	> 10000	251	–
Cn1cncc1-c1nnc(SCCCN2CCOC(c3ccc(C(F)(F)F)cc3)C2)n1C (racemic)	–	> 10000	631	–
Cc1ncoc1-c1nnc(SCCCN2CCOC(c3ccc(F)cc3)C2)n1C (racemic)	–	> 10000	398	–
Cn1c(SCCCN2CCOC(c3ccc(C(F)(F)F)cc3)C2)nnc1-c1ccc(C(N)=O)cc1 (stereo in doubt; 26)	6.31	–	15.8	Ki [2]: 6310 nM; IC50 (Cytochrome P450 2C9): > 30000 nM; microsomal CLint [8]: 16.3 µL/min/mg; IC50 (Cytochrome P450 2C19): > 30000 nM; IC50 (Cytochrome P450 3A4 [9]): > 30000 nM; fraction unbound [10]: 0.03; microsomal CLint [11]: 63.2 µL/min/mg; IC50 (Cytochrome P450 2D6): > 30000 nM; fraction unbound [12]: 0.045; IC50 (Cytochrome P450 3A4 [13]): > 30000 nM; IC50 (Cytochrome P450 1A2): > 30000 nM
Cc1ncoc1-c1nnc(SCCCN2CCOC(c3ccc(C(F)(F)F)cc3)C2)n1C (racemic)	–	–	126	–

Further lines, with some results ahead:

Ki (D(3) dopamine receptor [1]) [nM]	Ki (D(3) dopamine receptor [3]) [nM]	Ki (D(3) dopamine receptor [4]) [nM]	Compound	other results
15.8	> 10000	31.6	Cn1c(SCCCN2CCOC(c3ccc(C(F)(F)F)cc3)C2)nnc1-c1ccc(C(N)=O)nc1 (racemic)	Ki [2]: 2000 nM
–	> 10000	126	Cn1c(SCCCN2CCOC(c3ccc(C(F)(F)F)cc3)C2)nnc1-c1ccc(S(N)(=O)=O)cc1 (racemic)	–
–	> 10000	100	Cn1c(SCCCN2CCOC(c3ccc(C(F)(F)F)cc3)C2)nnc1-c1ccncc1 (racemic)	–
39.8	> 10000	63.1	Cn1c(SCCCN2CCOC(c3ccc(C(F)(F)F)cc3F)C2)nnc1-c1ccc(C(N)=O)cc1 (racemic)	–
–	> 10000	316	Cn1c(SCCCN2CCOC(c3ccc(C(F)(F)F)cc3)C2)nnc1-c1cccc(C(N)=O)c1 (racemic)	–
20	> 10000	63.1	CC(=O)c1ccc(-c2nnc(SCCCN3CCOC(c4ccc(C(F)(F)F)cc4)C3)n2C)cc1 (racemic)	–
–	> 10000	100	Cn1c(SCCCN2CCOC(c3ccc(C(F)(F)F)cc3)C2)nnc1-c1ccsc1 (racemic)	–
–	> 10000	200	Cc1ncoc1-c1nnc(SCCCN2CCOC(c3ccc(C(F)(F)F)cc3F)C2)n1C (racemic)	–
–	> 10000	100	Cn1c(SCCCN2CCOC(c3ccc(C(F)(F)F)cc3)C2)nnc1-c1ccc(C#N)cc1 (racemic)	–
12.6	> 10000	15.8	Cn1c(SCCCN2CCOC(c3ccc(C(F)(F)F)cc3)C2)nnc1-c1ccc(-c2nnco2)cc1 (racemic)	–
10	> 10000	25.1	Cc1nc(-c2ccc(-c3nnc(SCCCN4CCOC(c5ccc(C(F)(F)F)cc5)C4)n3C)cc2)no1 (racemic)	–
–	> 10000	100	Cn1c(SCCCN2CCOC(c3ccc(C(F)(F)F)cc3)C2)nnc1-c1cncc(C(N)=O)c1 (racemic)	–
